Experiment: Solubility of the furylphosphine in water

SMILES	solubility (23 °C) [mg/mL]	further results
O=P([O-])([O-])c1ccc(P(c2ccccc2)c2ccccc2)o1.[Na+].[Na+] [Example 2, disodium 2-(diphenylphosphino)furan-5-phosphonate]		solubility (20 °C): 680 mg/mL
O=S([O-])c1ccc(P(c2ccccc2)c2ccccc2)o1.[Na+] [Example 4, sodium 2-(diphenylphosphino)furan-5-sulphinate]		solubility (21 °C): 205 mg/mL
O=P(O)(O)c1ccc(P(c2ccccc2)c2ccc(P(=O)(O)O)o2)o1 [Example 3, tetrasodium 2,2′-phenylphosphine-diylbis(furan-5-phosphonate)]	1140	
O=C([O-])c1ccc(P(c2ccccc2)c2ccccc2)o1.[Na+] [Example 1, sodium 2-(diphenylphosphino)furan-5-carboxylate]	250	

— patent US6417375B1, “Furylphosphines and organometallic complexes containing them” (Rhodia Fiber & Resin Intermediates, priority 1998, dated 2002)
